According to patent US7288760B2, “Conformational real-time atmospheric and environmental characterization sampling apparatus and method” (Battelle Memorial Institute, priority 2005, dated 2007):

Format: in vivo
Conditions: dermal delivery via glass cup bulb, approximately 0.0007 g toluene, ~253 g rat, 10-L glass sampling chamber, quadrupole MS m/z=92, throughput 195 mL/min
Experimental: FIG. 5a illustrates a system 200 for real-time monitoring and/or analysis of analytes released to a sampling environment 30 in conjunction with animal exposure studies, according to another embodiment of the invention. In Example 4 below, a live animal (e.g., rat) 32 placed in a sampling environment 30 is dosed or treated with a chemical or a drug delivered, e.g., via a dermal cup bulb 34 in conjunction with a precision syringe 36 or other delivery means, including but not limited to, dermal patch, injection, or the like. Environment 30 is monitored in real-time via coupling with manifold 20 at the breathing (clearance) rate of the animal until desired target analytes, metabolites, and/or chemical indicators of interest are detected or quantified in the mass-selective detector or instrument comprising system 10. […]
A custom made ˜3-cc glass cup bulb 34 including a septum (not shown) made of silicon sealant (Dow Corning, Baltimore, Md.) was affixed to the dermis of an anesthetized ˜253 g rat 32 using a veterinary bonding compound (e.g., vet bond®, 3M, St. Paul, Minn.) and allowed to affix for ˜12 to 14 hours. […] Alternatively, breathing rate can be determined using a breathing plethysmograph (e.g., a double chamber plethysmograph, Buxco Electronics, Inc., Wilmington, N.C.). […]

In the case of `Cc1ccccc1` [toluene], the “Time from exposure to detection of the toluene analyte from the respired breath of animal” value is reported as “about 30 minutes”.
